Measurements: patent publication US7232690B1, “Method and device for detecting and isolating pharmacological compounds being contained in substance mixtures” (LTS Lohmann Therapie-Systeme AG, priority 1999, dated 2007)

Molecular target: β2-adrenoreceptor (Homo sapiens, UniProt P07550)
Assay: Ultrafiltration target-binding test of extract of taraxacum with β2-adrenoreceptor membrane preparation (Example 3)
[1] = Sample 351, no receptor, extract 1.5 mg (7.5 g/l)
[2] = Sample 355, receptor 1.04 pmol (5.2 nmol/l), extract 1.5 pmol (7.5 nmol/l)
[3] = Sample 356, receptor 1.04 pmol (5.2 nmol/l), extract 1.5 pmol (7.5 nmol/l)
[4] = Sample 360, no receptor, extract 0.3 mg (1.5 g/l)
[5] = Sample 361, receptor 1.04 pmol (5.2 nmol/l), extract 0.3 mg (1.5 g/l)
[6] = Sample 362, no receptor, extract 0.6 mg (3 g/l)
[7] = Sample 363, receptor 1.04 pmol (5.2 nmol/l), extract 0.6 mg (3 g/l)
[8] = Sample 364, no receptor, extract 1.0 mg (5.0 g/l)
[9] = Sample 365, receptor 1.04 pmol (5.2 nmol/l), extract 1.0 mg (5.0 g/l)
[10] = Sample 366, receptor 1.04 pmol (5.2 nmol/l), extract 1.5 mg (7.5 g/l)
[11] = Sample 367, receptor 1.04 pmol (5.2 nmol/l), extract 1.5 mg (7.5 g/l)
[12] = Sample 369, receptor 1.04 pmol (5.2 nmol/l), extract 1.5 mg (7.5 g/l)
[13] = Sample 373, receptor 1.04 pmol (5.2 nmol/l), extract 1.5 mg (7.5 g/l)
[14] = Sample 374, receptor 0.52 pmol (2.6 nmol/l), extract 1.5 mg (7.5 g/l)
[15] = Sample 375, receptor 0.26 pmol (1.3 nmol/l), extract 1.5 mg (7.5 g/l)

β2-adrenoreceptor, sequence (P07550 whole entry): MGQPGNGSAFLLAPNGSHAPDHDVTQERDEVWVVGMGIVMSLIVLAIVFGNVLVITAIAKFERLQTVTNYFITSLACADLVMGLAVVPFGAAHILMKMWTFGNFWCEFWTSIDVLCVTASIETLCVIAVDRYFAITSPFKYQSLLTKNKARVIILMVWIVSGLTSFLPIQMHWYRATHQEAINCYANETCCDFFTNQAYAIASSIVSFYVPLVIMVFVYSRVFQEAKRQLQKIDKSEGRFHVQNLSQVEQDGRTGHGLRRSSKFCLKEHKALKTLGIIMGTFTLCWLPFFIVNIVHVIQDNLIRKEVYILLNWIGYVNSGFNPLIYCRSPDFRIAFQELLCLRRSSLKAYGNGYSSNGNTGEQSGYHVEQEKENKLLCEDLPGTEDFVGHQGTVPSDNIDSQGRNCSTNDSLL
Protocol: Substance used for the assays: • a) extr. taraxaci spir. sicc.
In the assays, the extract of taraxacum and the membrane preparation were combined in different stoichiometric ratios, dissolved in 200 μl of binding buffer (150 mM of NaCl, 50 mM of tris, pH 8.2 in water).
The receptor-ligand binding was completed by 30-minute-long incubation of the mixture at 30-34° C. The solutions were then placed on a Microcon 10 centrifugal filter and centrifuged at 9981×g for 15 min or until dryness of the filter. […] After two washing steps with binding buffer, the complexes present on the filter were separated by treatment with 200 μl of TFA (1/49.5/49.5).
The eluates from the following four filtration steps were centrifuged under vacuum until dryness, and the substances obtained were dissolved by means of ultrasound in 10 μl of the mobile phase of the HPLC (cf. Example 1), shortly before LC analysis.

Question: For O=C(/C=C/c1ccc(O)c(O)c1)OC(C(=O)O)C(O)C(=O)O (stereo not drawn) [Substance L3, trans-caftarinic acid], which “1st Wash” value [1] is on record?
Answer: Its value is 51.0 nmol/L.

Question: What about the “2nd Wash” value [1] of the same molecule?
Answer: Its value is 8.0 nmol/L.

Question: What about the Filtrate [1] of the same molecule?
Answer: The Filtrate was 740.3 nmol/L.

Question: What about the Liberation [1] of the same molecule?
Answer: The Liberation was 11.9 nmol/L.

Question: And the “1st Wash” value [2]?
Answer: The value was 88.8 nmol/L.

Question: What about the “2nd Wash” value [2] of the same molecule?
Answer: The value was 12.9 nmol/L.

Question: And the Filtrate [2]?
Answer: Its Filtrate is 353.5 nmol/L.

Question: And the Liberation [2]?
Answer: Its Liberation is 15.8 nmol/L.

Question: And the “1st Wash” value [3]?
Answer: The value was 79.0 nmol/L.

Question: And the “2nd Wash” value [3]?
Answer: The value was 9.9 nmol/L.

Question: And the Filtrate [3]?
Answer: Its Filtrate is 961.9 nmol/L.

Question: And the Liberation [3]?
Answer: Its Liberation is 26.3 nmol/L.

Question: What about the “1st Wash” value [4] of the same molecule?
Answer: The value was 22.7 nmol/L.

Question: What about the “2nd Wash” value [4] of the same molecule?
Answer: The value was 0 nmol/L.

Question: What about the Filtrate [4] of the same molecule?
Answer: Its Filtrate is 411.5 nmol/L.

Question: And the Liberation [4]?
Answer: Its Liberation is 8.1 nmol/L.

Question: What about the “1st Wash” value [5] of the same molecule?
Answer: The value was 16.5 nmol/L.

Question: And the “2nd Wash” value [5]?
Answer: Its value is 29.6 nmol/L.

Question: And the Filtrate [5]?
Answer: The Filtrate was 537.0 nmol/L.

Question: And the Liberation [5]?
Answer: The Liberation was 11.2 nmol/L.

Question: What about the “1st Wash” value [6] of the same molecule?
Answer: The value was 20.5 nmol/L.

Question: And the “2nd Wash” value [6]?
Answer: The value was 5.6 nmol/L.

Question: And the Filtrate [6]?
Answer: The Filtrate was 650.1 nmol/L.

Question: And the Liberation [6]?
Answer: The Liberation was 3.2 nmol/L.

Question: What about the “1st Wash” value [7] of the same molecule?
Answer: Its value is 54.4 nmol/L.

Question: And the “2nd Wash” value [7]?
Answer: Its value is 0 nmol/L.

Question: And the Filtrate [7]?
Answer: Its Filtrate is 736.9 nmol/L.

Question: And the Liberation [7]?
Answer: Its Liberation is 8.7 nmol/L.

Question: What about the “1st Wash” value [8] of the same molecule?
Answer: The value was 36.9 nmol/L.

Question: What about the “2nd Wash” value [8] of the same molecule?
Answer: Its value is 3.0 nmol/L.

Question: And the Filtrate [8]?
Answer: The Filtrate was 1034.4 nmol/L.

Question: What about the Liberation [8] of the same molecule?
Answer: The Liberation was 5.3 nmol/L.

Question: What about the “1st Wash” value [9] of the same molecule?
Answer: The value was 51.7 nmol/L.

Question: What about the “2nd Wash” value [9] of the same molecule?
Answer: Its value is 8.6 nmol/L.

Question: And the Filtrate [9]?
Answer: Its Filtrate is 1221.4 nmol/L.

Question: What about the Liberation [9] of the same molecule?
Answer: The Liberation was 9.8 nmol/L.

Question: And the “1st Wash” value [10]?
Answer: Its value is 102.8 nmol/L.

Question: What about the “2nd Wash” value [10] of the same molecule?
Answer: Its value is 2.3 nmol/L.

Question: And the Filtrate [10]?
Answer: The Filtrate was 2088.5 nmol/L.

Question: What about the Liberation [10] of the same molecule?
Answer: The Liberation was 7.6 nmol/L.

Question: What about the “1st Wash” value [11] of the same molecule?
Answer: The value was 46.2 nmol/L.

Question: What about the “2nd Wash” value [11] of the same molecule?
Answer: The value was 15.6 nmol/L.

Question: And the Filtrate [11]?
Answer: The Filtrate was 2310.8 nmol/L.

Question: And the Liberation [11]?
Answer: The Liberation was 6.3 nmol/L.

Question: What about the “1st Wash” value [12] of the same molecule?
Answer: The value was 90.8 nmol/L.

Question: What about the “2nd Wash” value [12] of the same molecule?
Answer: Its value is 41.8 nmol/L.

Question: And the Filtrate [12]?
Answer: Its Filtrate is 2381.4 nmol/L.

Question: And the Liberation [12]?
Answer: The Liberation was 7.0 nmol/L.

Question: What about the “1st Wash” value [13] of the same molecule?
Answer: The value was 91.7 nmol/L.

Question: What about the “2nd Wash” value [13] of the same molecule?
Answer: Its value is 26.6 nmol/L.

Question: And the Filtrate [13]?
Answer: The Filtrate was 2450.0 nmol/L.

Question: And the Liberation [13]?
Answer: Its Liberation is 36.2 nmol/L.

Question: What about the “1st Wash” value [14] of the same molecule?
Answer: Its value is 44.0 nmol/L.

Question: And the “2nd Wash” value [14]?
Answer: Its value is 7.4 nmol/L.

Question: What about the Filtrate [14] of the same molecule?
Answer: Its Filtrate is 2593.2 nmol/L.

Question: What about the Liberation [14] of the same molecule?
Answer: Its Liberation is 25.3 nmol/L.

Question: And the “1st Wash” value [15]?
Answer: Its value is 39.7 nmol/L.

Question: And the “2nd Wash” value [15]?
Answer: The value was 19.6 nmol/L.

Question: What about the Filtrate [15] of the same molecule?
Answer: Its Filtrate is 2252.1 nmol/L.

Question: What about the Liberation [15] of the same molecule?
Answer: Its Liberation is 19.0 nmol/L.

Question: Which results are given for O=C(/C=C/c1ccc(O)c(O)c1)O[C@@H](C(=O)O)[C@@H](OC(=O)/C=C/c1ccc(O)c(O)c1)C(=O)O [Substance L6, trans-chicorinic acid]?
Answer: 1st Wash [1]: 15045 nmol/L; 2nd Wash [1]: 750.8 nmol/L; Filtrate [1]: 5970.7 nmol/L; Liberation [1]: 195.0 nmol/L; 1st Wash [2]: 451.4 nmol/L; 2nd Wash [2]: 100.4 nmol/L; Filtrate [2]: 1482.0 nmol/L; Liberation [2]: 707.0 nmol/L; 1st Wash [3]: 600.1 nmol/L; 2nd Wash [3]: 202.1 nmol/L; Filtrate [3]: 1848.6 nmol/L; Liberation [3]: 2199.1 nmol/L; 1st Wash [4]: 468.9 nmol/L; 2nd Wash [4]: 140.3 nmol/L; Filtrate [4]: 2935.2 nmol/L; Liberation [4]: 34.7 nmol/L; 1st Wash [5]: 146.5 nmol/L; 2nd Wash [5]: 124.3 nmol/L; Filtrate [5]: 1588.2 nmol/L; Liberation [5]: 138.1 nmol/L; 1st Wash [6]: 958.0 nmol/L; 2nd Wash [6]: 351.4 nmol/L; Filtrate [6]: 3446.6 nmol/L; Liberation [6]: 85.4 nmol/L; 1st Wash [7]: 248.3 nmol/L; 2nd Wash [7]: 142.0 nmol/L; Filtrate [7]: 1180.6 nmol/L; Liberation [7]: 257.0 nmol/L; 1st Wash [8]: 1377.0 nmol/L; 2nd Wash [8]: 627.8 nmol/L; Filtrate [8]: 3752.4 nmol/L; Liberation [8]: 151.3 nmol/L; 1st Wash [9]: 626.7 nmol/L; 2nd Wash [9]: 141.6 nmol/L; Filtrate [9]: 2291.6 nmol/L; Liberation [9]: 439.6 nmol/L; 1st Wash [10]: 620.0 nmol/L; 2nd Wash [10]: 181.5 nmol/L; Filtrate [10]: 5581.8 nmol/L; Liberation [10]: 504.8 nmol/L; 1st Wash [11]: 832.5 nmol/L; 2nd Wash [11]: 274.6 nmol/L; Filtrate [11]: 5159.0 nmol/L; Liberation [11]: 616.8 nmol/L; 1st Wash [12]: 478.1 nmol/L; 2nd Wash [12]: 341.9 nmol/L; Filtrate [12]: 7449.7 nmol/L; Liberation [12]: 674.0 nmol/L; 1st Wash [13]: 182.7 nmol/L; 2nd Wash [13]: 277.1 nmol/L; Filtrate [13]: 5562.6 nmol/L; Liberation [13]: 2096.1 nmol/L; 1st Wash [14]: 1062.4 nmol/L; 2nd Wash [14]: 476.6 nmol/L; Filtrate [14]: 8589.0 nmol/L; Liberation [14]: 1015.4 nmol/L; 1st Wash [15]: 921.1 nmol/L; 2nd Wash [15]: 433.9 nmol/L; Filtrate [15]: 10838.5 nmol/L; Liberation [15]: 279.9 nmol/L
